Patent publication US12195482B1 (Arcus Biosciences, Inc., priority 2022, dated 2025)

Assays:
[1] = biological target: T1, recombinant human MER (Homo sapiens, UniProt Q12866); test: Biochemical potency, HTRF KinEASE-TK kinase assay; settings: 1 nM MER, 700 μM ATP
T1 construct: purchased Invitrogen
T1 sequence (Q12866 21-999): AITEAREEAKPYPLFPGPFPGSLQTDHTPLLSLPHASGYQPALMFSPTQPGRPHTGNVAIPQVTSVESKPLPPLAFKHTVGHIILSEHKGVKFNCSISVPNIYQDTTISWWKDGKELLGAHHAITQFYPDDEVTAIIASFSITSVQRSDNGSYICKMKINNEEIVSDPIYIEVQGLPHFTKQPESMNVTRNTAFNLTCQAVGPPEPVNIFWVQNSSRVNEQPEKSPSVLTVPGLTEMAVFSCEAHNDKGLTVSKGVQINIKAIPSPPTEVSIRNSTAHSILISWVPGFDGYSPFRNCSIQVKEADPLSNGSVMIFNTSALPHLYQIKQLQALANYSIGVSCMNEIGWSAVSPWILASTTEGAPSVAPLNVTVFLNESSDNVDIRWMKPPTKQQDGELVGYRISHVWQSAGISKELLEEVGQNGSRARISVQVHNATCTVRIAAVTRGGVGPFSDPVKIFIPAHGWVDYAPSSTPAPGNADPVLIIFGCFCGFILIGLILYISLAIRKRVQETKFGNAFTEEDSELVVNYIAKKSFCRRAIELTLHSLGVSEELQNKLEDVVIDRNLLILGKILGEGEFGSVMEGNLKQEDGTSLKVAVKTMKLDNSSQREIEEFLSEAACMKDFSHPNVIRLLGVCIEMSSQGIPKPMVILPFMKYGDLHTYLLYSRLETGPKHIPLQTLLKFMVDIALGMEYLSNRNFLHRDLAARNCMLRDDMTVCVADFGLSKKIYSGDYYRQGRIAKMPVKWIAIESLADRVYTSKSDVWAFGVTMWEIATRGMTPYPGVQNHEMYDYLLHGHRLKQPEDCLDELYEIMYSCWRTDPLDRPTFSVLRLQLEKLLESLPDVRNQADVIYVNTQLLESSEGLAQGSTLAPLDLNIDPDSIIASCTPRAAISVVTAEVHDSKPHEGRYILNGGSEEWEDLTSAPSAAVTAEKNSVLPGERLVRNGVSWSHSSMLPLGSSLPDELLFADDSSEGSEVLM
Method in brief: (§1)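 HTRF 665/620 readout after a 2 h RT kinase reaction (final 700 μM ATP, 800 nM biotinylated TK substrate, 1% DMSO, HEPES pH 7.4 buffer) gave percent activity. Final enzyme was 5 nM for AXL, 1 nM for TYRO3 or MER, each preincubated 1 h with compound.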

[2] = biological target: T2, recombinant human TYRO3 (Homo sapiens, UniProt Q06418); test: Biochemical potency, HTRF KinEASE-TK kinase assay; settings: 1 nM TYRO3, 700 μM ATP
T2 construct: purchased Invitrogen
T2 sequence (Q06418 41-890): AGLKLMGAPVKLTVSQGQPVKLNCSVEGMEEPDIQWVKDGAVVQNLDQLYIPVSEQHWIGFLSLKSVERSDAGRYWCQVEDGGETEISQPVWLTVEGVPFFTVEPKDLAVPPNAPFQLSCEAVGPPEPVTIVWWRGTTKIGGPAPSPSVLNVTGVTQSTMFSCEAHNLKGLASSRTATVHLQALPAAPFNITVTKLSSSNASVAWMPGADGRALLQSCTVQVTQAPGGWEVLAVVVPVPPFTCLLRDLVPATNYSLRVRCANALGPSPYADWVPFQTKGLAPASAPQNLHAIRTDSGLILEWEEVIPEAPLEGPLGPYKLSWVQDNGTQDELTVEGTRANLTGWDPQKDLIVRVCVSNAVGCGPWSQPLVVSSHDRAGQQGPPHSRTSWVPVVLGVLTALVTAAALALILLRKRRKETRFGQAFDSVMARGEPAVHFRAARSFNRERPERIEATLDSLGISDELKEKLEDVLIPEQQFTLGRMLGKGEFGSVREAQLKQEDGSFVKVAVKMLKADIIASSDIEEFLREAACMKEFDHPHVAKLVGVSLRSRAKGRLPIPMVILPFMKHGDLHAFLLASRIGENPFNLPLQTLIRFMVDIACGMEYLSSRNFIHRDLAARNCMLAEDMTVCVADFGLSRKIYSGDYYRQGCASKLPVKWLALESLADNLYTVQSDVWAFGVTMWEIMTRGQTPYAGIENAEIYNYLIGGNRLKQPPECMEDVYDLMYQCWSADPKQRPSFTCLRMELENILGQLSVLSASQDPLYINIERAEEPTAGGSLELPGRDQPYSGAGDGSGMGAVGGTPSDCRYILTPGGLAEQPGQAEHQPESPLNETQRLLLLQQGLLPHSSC
Method in brief: as §1

Row | SMILES | IC50 [1] [nM] | IC50 [2] [nM]
1 | N#Cc1cccnc1-c1ccc(-c2n[nH]c3ncc(-c4ccc5c(c4)CC[C@@H](N4C6COCC4C6)CC5)cc23)cc1 [Example 52, 2-(4-{5-[(7S)-7-{3-Oxa-6-azabicyclo[3.1.1]heptan-6-yl}-6,7,8,9-tetrahydro-5H-benzo[7]annulen-2-yl]-1H-pyrazolo[3,4-b]pyridin-3-yl}phenyl)pyridine-3-carbonitrile] | 100 to 1000 | 100 to 1000
2 | Cc1nccnc1-c1ccc(-c2c[nH]c3ncc(-c4ccc5c(c4)CC[C@@H](N4C6COCC4C6)CC5)cc23)nc1 [Example 54, 6-[(7S)-2-{3-[5-(3-Methylpyrazin-2-yl)pyridin-2-yl]-1H-pyrrolo[2,3-b]pyridin-5-yl}-6,7,8,9-tetrahydro-5H-benzo[7]annulen-7-yl]-3-oxa-6-azabicyclo[3.1.1]heptane] | > 1000 | 100 to 1000
3 | Cc1ccnnc1-c1ccc(-c2n[nH]c3ncc(-c4ccc5c(c4)CC[C@@H](N4C6COCC4C6)CC5)cc23)nc1 [Example 56, 6-[(7S)-2-{3-[5-(4-Methylpyridazin-3-yl)pyridin-2-yl]-1H-pyrazolo[3,4-b]pyridin-5-yl}-6,7,8,9-tetrahydro-5H-benzo[7]annulen-7-yl]-3-oxa-6-azabicyclo[3.1.1]heptane] | 100 to 1000 | 100 to 1000
4 | Cc1cnc(C)c(-c2ccc(-c3c[nH]c4ncc(-c5ccc6c(c5)CC[C@@](C)(N5CCC[C@H]5C)CC6)cc34)cc2)n1 [Example 58, 2,5-Dimethyl-3-(4-{5-[(7S)-7-methyl-7-[(2R)-2-methylpyrrolidin-1-yl]-6,7,8,9-tetrahydro-5H-benzo[7]annulen-2-yl]-1H-pyrrolo[2,3-b]pyridin-3-yl}phenyl)pyrazine] | 100 to 1000 | 100 to 1000
5 | Cc1cnc(-c2ccc(-c3c[nH]c4ncc(-c5ccc6c(c5)CC[C@@H](N5CCCC5)CC6)cc34)cc2)c(C)n1 [Example 59, 3,5-Dimethyl-2-(4-{5-[(7S)-7-(pyrrolidin-1-yl)-6,7,8,9-tetrahydro-5H-benzo[7]annulen-2-yl]-1H-pyrrolo[2,3-b]pyridin-3-yl}phenyl)pyrazine] | 100 to 1000 | 100 to 1000
6 | Cc1cc(C)c(-c2ccc(-c3n[nH]c4ncc(-c5ccc6c(c5)CC[C@@](C)(N5CCC[C@H]5C)CC6)cc34)cc2)nn1 [Example 78, 4,6-Dimethyl-3-(4-{5-[(7S)-7-methyl-7-[(2R)-2-methylpyrrolidin-1-yl]-6,7,8,9-tetrahydro-5H-benzo[7]annulen-2-yl]-1H-pyrazolo[3,4-b]pyridin-3-yl}phenyl)pyridazine] | < 100 | < 100

Next, values leading:

Row | IC50 [1] [nM] | IC50 [2] [nM] | SMILES
7 | 100 to 1000 | 100 to 1000 | Cc1cnc(C)c(-c2ccc(-c3c[nH]c4ncc(-c5ccc6c(c5)CC[C@@H](N5C7COCC5C7)CC6)cc34)cc2)n1 [Example 53, 6-[(7S)-2-{3-[4-(3,6-Dimethylpyrazin-2-yl)phenyl]-1H-pyrrolo[2,3-b]pyridin-5-yl}-6,7,8,9-tetrahydro-5H-benzo[7]annulen-7-yl]-3-oxa-6-azabicyclo[3.1.1]heptane]
8 | 100 to 1000 | 100 to 1000 | Cc1cnc(-c2ccc(-c3c[nH]c4ncc(-c5ccc6c(c5)CC[C@@](C)(N5CCC[C@H]5C)CC6)cc34)cc2)c(C)n1 [Example 57, 3,5-Dimethyl-2-(4-{5-[(7S)-7-methyl-7-[(2R)-2-methylpyrrolidin-1-yl]-6,7,8,9-tetrahydro-5H-benzo[7]annulen-2-yl]-1H-pyrrolo[2,3-b]pyridin-3-yl}phenyl)pyrazine]
9 | 100 to 1000 | < 100 | Cc1cc(C)c(-c2ccc(-c3n[nH]c4ncc(-c5ccc6c(c5)CC[C@@H](N5C7COCC5C7)CC6)cc34)cc2)nn1 [Example 77, 6-[(7S)-2-{3-[4-(4,6-Dimethylpyridazin-3-yl)phenyl]-1H-pyrazolo[3,4-b]pyridin-5-yl}-6,7,8,9-tetrahydro-5H-benzo[7]annulen-7-yl]-3-oxa-6-azabicyclo[3.1.1]heptane]
